Earlier results, collected in patent US7740874B2, “Method of making a lanolin free absorption base” (Quintessa Corporation, priority 2002, dated 2010).

Conditions: hydrophilic-lipophilic balance

methyl glucose dioleate [emulsifier]
HLB: 5
